Test results published in patent US4474766A, “Anti-inflammatory/analgesic combination of cyclo-(N-methyl-Ala-Tyr-D-Trp-Lys-Val-Phe) and a selected non-steroidal anti-inflammatory drug (NSAID)” (Merck & Co., Inc., priority 1983, dated 1984).

Tested on: NSAID-induced gastric ulcers
Assay: NSAID-Induced Ulcers in the Sprague-Dawley Rat (gastric ulcer assay)
Assay type: in vivo
Set-up: Inhibition of Gastric Ulcers: unit not given here
From the text: When a selected NSAID, for example, indomethacin, is combined with cyclo-(N-methyl-Ala-Tyr-D-Trp-Lys-Val-Phe) according to the present invention, the following results are obtained from the well-established gastric ulcer assay in the Sprague-Dawley male rat is described below:
Protocol: NSAID-Induced Ulcers in the Sprague-Dawley Rat
Twenty-four (24) hour fasted, male, Sprague-Dawley rats, 130 to 150 gms. each, are randomized into groups for assay. The animals are housed to wire-bottom cages without bedding and allowed free-access to water throughout the fasting and experimental periods. Ulcers are then induced by the peroral administration of NSAID at dose levels predetermined to provoke a similar number of ulcers within 4 hours of additional fasting*. Each NSAID is prepared in 0.5% methyl cellulose vehicle and given at a volume of 10 ml/kg rounded to the nearest 0.1 ml. Either 0.5% methylcellulose vehicle or compound A is co-administered perorally with the NSAID bringing the total volume to 20 ml/kg rounded to the nearest 0.2 ml.
*For example: Indomethacin-20 mg/kg; Naproxen-50 mg/kg; Ibuprofen-100 mg/kg; Diclofenac-75 mg/kg.
Four (4) hours after the administration of NSAID+vehicle, or NSAID+compound A, the animals are sacrificed by CO2 inhalation, the stomachs removed, excised along the inner curvature, washed carefully with cool tap water and placed in 0.9% saline. When all groups have been processed, the mucosal region of the stomachs are examined under a magnifying lens and scored according to the total number of lesions present. Group scores represent the mean score of animals in that group. P values are determined by Student's "t" test, comparing the ulcer scores of individual rats given NSAID+compound A to those dosed with NSAID+vehicle only.

[1] = Compound A 0.01 mg/kg p.o. co-administered with Diclofenac 75 mg/kg p.o., 4 h
[2] = Compound A 0.01 mg/kg p.o. co-administered with Ibuprofen 100 mg/kg p.o., 4 h
[3] = Compound A 0.01 mg/kg p.o. co-administered with Indomethacin 20 mg/kg p.o., 4 h
[4] = Compound A 0.01 mg/kg p.o. co-administered with Naproxen 50 mg/kg p.o., 4 h
[5] = Compound A 0.1 mg/kg p.o. co-administered with Diclofenac 75 mg/kg p.o., 4 h
[6] = Compound A 0.1 mg/kg p.o. co-administered with Ibuprofen 100 mg/kg p.o., 4 h
[7] = Compound A 0.1 mg/kg p.o. co-administered with Indomethacin 20 mg/kg p.o., 4 h
[8] = Compound A 0.1 mg/kg p.o. co-administered with Naproxen 50 mg/kg p.o., 4 h
[9] = Compound A 1.0 mg/kg p.o. co-administered with Diclofenac 75 mg/kg p.o., 4 h
[10] = Compound A 1.0 mg/kg p.o. co-administered with Ibuprofen 100 mg/kg p.o., 4 h
[11] = Compound A 1.0 mg/kg p.o. co-administered with Indomethacin 20 mg/kg p.o., 4 h
[12] = Compound A 1.0 mg/kg p.o. co-administered with Naproxen 50 mg/kg p.o., 4 h

O=C(O)Cc1ccccc1Nc1c(Cl)cccc1Cl [Diclofenac, diclofenac, reference compound]
Inhibition of Gastric Ulcers (Diclofenac 75 mg/kg p.o. + vehicle (control), 4 h): 0
No. of Gastric Ulcers M ± S.E.M. (Diclofenac 75 mg/kg p.o. + vehicle (control), fasted male rats, 4 h after dosing): 14.0 ± 1.6

CC(C)Cc1ccc(C(C)C(=O)O)cc1 (stereo not drawn) [Ibuprofen, ibuprofen, reference compound]
Inhibition of Gastric Ulcers (Ibuprofen 100 mg/kg p.o. + vehicle (control), 4 h): 0

COc1ccc2c(c1)c(CC(=O)O)c(C)n2C(=O)c1ccc(Cl)cc1 [Indomethacin, indomethacin, reference compound]
Inhibition of Gastric Ulcers (Indomethacin 20 mg/kg p.o. + vehicle (control), 4 h): 0
No. of Gastric Ulcers M ± S.E.M. (Indomethacin 20 mg/kg p.o. + vehicle (control), fasted male rats, 4 h after dosing): 18.1 ± 1.6

COc1ccc2cc([C@H](C)C(=O)O)ccc2c1 [Naproxen, naproxen, reference compound]
Inhibition of Gastric Ulcers (Naproxen 50 mg/kg p.o. + vehicle (control), 4 h): 0

cyclo-(N-methyl-Ala-Tyr-D-Trp-Lys-Val-Phe) [Compound A]
Inhibition of Gastric Ulcers [1]: 0
No. of Gastric Ulcers M ± S.E.M. [1]: 18.7 ± 2.0
Inhibition of Gastric Ulcers [2]: 36.4
No. of Gastric Ulcers M ± S.E.M. [2]: 8.2 ± 1.0
Inhibition of Gastric Ulcers [3]: 0
No. of Gastric Ulcers M ± S.E.M. [3]: 18.6 ± 4.4
Inhibition of Gastric Ulcers [4]: 0
No. of Gastric Ulcers M ± S.E.M. [4]: 14.0 ± 3.0
Inhibition of Gastric Ulcers [5]: 47.9
No. of Gastric Ulcers M ± S.E.M. [5]: 7.3 ± 2.3
Inhibition of Gastric Ulcers [6]: 87.6
No. of Gastric Ulcers M ± S.E.M. [6]: 1.6 ± 0.6
Inhibition of Gastric Ulcers [7]: 50.3
No. of Gastric Ulcers M ± S.E.M. [7]: 9.0 ± 1.9
Inhibition of Gastric Ulcers [8]: 67.7
No. of Gastric Ulcers M ± S.E.M. [8]: 5.0 ± 2.5
Inhibition of Gastric Ulcers [9]: 99.3
No. of Gastric Ulcers M ± S.E.M. [9]: 0.1 ± 0.1
Inhibition of Gastric Ulcers [10]: 92.3
No. of Gastric Ulcers M ± S.E.M. [10]: 1.0 ± 0.5
Inhibition of Gastric Ulcers [11]: 83.4
No. of Gastric Ulcers M ± S.E.M. [11]: 3.0 ± 1.3
Inhibition of Gastric Ulcers [12]: 83.9
No. of Gastric Ulcers M ± S.E.M. [12]: 2.5 ± 1.4
